{
  "source": "patent US10947252B2",
  "about": "“Inhibitors of KEAP1-Nrf2 protein-protein interaction” (Janssen Pharmaceutica NV, priority 2018, dated 2021)",
  "test_system": "Glo-Response ARE-luc2P HEK293 cell line",
  "assay": "ARE luciferase reporter cell-based assay;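 note: luciferase signal tracks Nrf2 activation of the ARE once compounds disrupt KEAP1-Nrf2 binding, read with One-Glo reagent, DMSO serving as low control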",
  "conditions": "average of results obtained",
  "note": "pEC50: −log10 of the molar value.",
  "data": [
    {"compound": "CCn1nnc2c(C)c(C(CC(=O)O)c3ccc(C)c(CN4C[C@H]5CCCCN5c5ncccc5S4(=O)=O)c3)ccc21", "note": "(mixture of isomers) [Example 144, (R/S)-3-(3-(((*R)-5,5-Dioxido-7,7a,8,9,10,11-hexahydro-6H-dipyrido[2,1-d:2′,3′-f][1,2,5]thiadiazepin-6-yl)methyl)-4-methylphenyl)-3-(1-ethyl-4-methyl-1H-benzo[d][1,2,3]triazol-5-yl)propanoic Acid]", "values": [
      {"measurement": "pEC50", "setting": "Homo sapiens, HEK293, 24 h", "value": 8.51}
    ]},
    {"compound": "Cc1ccc([C@@H](c2ccn3c(C(F)(F)F)nnc3c2C)C(C)(C)C(=O)O)cc1CN1CC2(CCOCC2)Oc2nc(OCCN3CCCCC3)ccc2S1(=O)=O", "note": "(single isomer, unassigned) [Example 127]", "values": [
      {"measurement": "pEC50", "setting": "Homo sapiens, HEK293, 24 h", "value": 7.93}
    ]},
    {"compound": "CCn1nnc2c(C)c(C(c3ccc(C)c(CN4CC5(CCOCC5)Oc5ncccc5S4(=O)=O)c3)C(C)(C)C(=O)O)ccc21", "note": "(centres unmarked) [Example 14, 3-(3-((1′,1′-Dioxido-2,3,5,6-tetrahydrospiro[pyran-4,4′-pyrido[2,3-b][1,4,5]oxathiazepin]-2′(3′H)-yl)methyl)-4-methylphenyl)-3-(1-ethyl-4-methyl-1H-benzo[d][1,2,3]triazol-5-yl)-2,2-dimethylpropanoic Acid]", "values": [
      {"measurement": "pEC50", "setting": "Homo sapiens, HEK293, 24 h", "value": 9.15}
    ]},
    {"compound": "Cc1ncc(C(c2ccn3c(C(F)(F)F)nnc3c2C)C(C)(C)C(=O)O)cc1CN1CC2(CCOCC2)Oc2ncccc2S1(=O)=O", "note": "(racemic) [Example 569, (R/S)-3-(5-((1′,1′-Dioxido-2,3,5,6-tetrahydrospiro[pyran-4,4′-pyrido[2,3-b][1,4,5]oxathiazepin]-2′(3′H)-yl)methyl)-6-methylpyridin-3-yl)-2,2-dimethyl-3-(8-methyl-3-(trifluoromethyl)-[1,2,4]triazolo[4,3-a]pyridin-7-yl)propanoic Acid]", "values": [
      {"measurement": "pEC50", "setting": "Homo sapiens, HEK293, 24 h", "value": 5.86}
    ]},
    {"compound": "Cc1ccc([C@H](c2ccn3c(C(F)(F)F)nnc3c2C)C(C)C(=O)O)cc1CN1C[C@@H]2CCCCN2c2ncccc2S1(=O)=O", "note": "(relative stereo) [Example 130, (3*R)-3-(3-(((*S)-5,5-Dioxido-7,7a,8,9,10,11-hexahydro-6H-dipyrido[2,1-d:2′,3′-f][1,2,5]thiadiazepin-6-yl)methyl)-4-methylphenyl)-2-methyl-3-(8-methyl-3-(trifluoromethyl)-[1,2,4]triazolo[4,3-a]pyridine-7-yl)propanoic Acid]", "values": [
      {"measurement": "pEC50", "setting": "Homo sapiens, HEK293, 24 h", "value": 7.26}
    ]},
    {"compound": "Cc1ccc([C@H](CC(=O)O)c2ccn3c(C(F)(F)F)nnc3c2C)cc1CN1C[C@H]2CCCCN2c2ncc(F)cc2S1(=O)=O", "note": "(relative stereo) [Example 310, (*S)-3-(3-(((*R)-3-fluoro-5,5-dioxido-7,7a,8,9,10,11-hexahydro-6H-dipyrido[2,1-d:2′,3′-f][1,2,5]thiadiazepin-6-yl)methyl)-4-methylphenyl)-3-(8-methyl-3-(trifluoromethyl)-[1,2,4]triazolo[4,3-a]pyridin-7-yl)propanoic Acid]", "values": [
      {"measurement": "pEC50", "setting": "Homo sapiens, HEK293, 24 h", "value": 8.52}
    ]},
    {"compound": "Cc1ccc([C@H](c2cc(OC(F)F)c3c(c2)nnn3C)C(C)(C)C(=O)O)cc1CN1CC2(CCOCC2)Oc2ncccc2S1(=O)=O", "note": "(single isomer, unassigned) [Example 427, (R*)-3-(7-(difluoromethoxy)-1-methyl-1H-benzo[d][1,2,3]triazol-5-yl)-3-(3-((1′,1′-dioxido-2,3,5,6-tetrahydrospiro[pyran-4,4′-pyrido[2,3-b][1,4,5]oxathiazepin]-2′(3′H)-yl)methyl)-4-methylphenyl)-2,2-dimethylpropanoic Acid]", "values": [
      {"measurement": "pEC50", "setting": "Homo sapiens, HEK293, 24 h", "value": 6.53}
    ]},
    {"compound": "Cc1ncc([C@H](c2ccn3c(C(F)(F)F)nnc3c2C)C(C)(C)C(=O)O)cc1CN1C[C@H]2CCCCN2c2ncc(C#N)cc2S1(=O)=O", "note": "(relative stereo) [Example 656, (*S)-3-(5-(((*R)-3-Cyano-5,5-dioxido-7,7a,8,9,10,11-hexahydro-6H-dipyrido[2,1-d:2′,3′-f][1,2,5]thiadiazepin-6-yl)methyl)-6-methylpyridin-3-yl)-2,2-dimethyl-3-(8-methyl-3-(trifluoromethyl)-[1,2,4]triazolo[4,3-a]pyridin-7-yl)propanoic Acid]", "values": [
      {"measurement": "pEC50", "setting": "Homo sapiens, HEK293, 24 h", "value": 5.44}
    ]},
    {"compound": "Cc1cnc([C@H](c2ccn3c(C(F)F)nnc3c2C)C(C)(C)C(=O)O)cc1CN1CC2(CC2)Oc2nc(OCCN3CCCCC3)c(C)cc2S1(=O)=O", "note": "(single isomer, unassigned) [Example 637, (*R)-3-(3-(Difluoromethyl)-8-methyl-[1,2,4]triazolo[4,3-a]pyridin-7-yl)-2,2-dimethyl-3-(5-methyl-4-((8′-methyl-1′,1′-dioxido-7′-(2-(piperidin-1-yl)ethoxy)spiro[cyclopropane-1,4′-pyrido[2,3-b][1,4,5]oxathiazepin]-2′(3′H)-yl)methyl)pyridin-2-yl)propanoic Acid]", "values": [
      {"measurement": "pEC50", "setting": "Homo sapiens, HEK293, 24 h", "value": 6.21}
    ]},
    {"compound": "Cc1c(C(CC(=O)O)c2ccc(Cl)c(CN3CC4(COC4)Oc4ccccc4S3(=O)=O)c2)ccn2c(C(F)(F)F)nnc12", "note": "(centres unmarked) [Example 95]", "values": [
      {"measurement": "pEC50", "setting": "Homo sapiens, HEK293, 24 h", "value": 5.97}
    ]},
    {"compound": "Cc1ccc([C@H](CC(=O)O)c2ccn3c(C(F)F)nnc3c2C)cc1CN1CC2(CC2)Oc2ncc(Cl)cc2S1(=O)=O", "note": "(single isomer, unassigned) [Example 530, (*S)-3-(3-((8′-Chloro-1′,1′-dioxidospiro[cyclopropane-1,4′-pyrido[2,3-b][1,4,5]oxathiazepin]-2′(3′H)-yl)methyl)-4-methylphenyl)-3-(3-(difluoromethyl)-8-methyl-[1,2,4]triazolo[4,3-a]pyridin-7-yl)propanoic Acid]", "values": [
      {"measurement": "pEC50", "setting": "Homo sapiens, HEK293, 24 h", "value": 7.99}
    ]},
    {"compound": "CCn1nnc2c(C)c([C@@H](CC(=O)O)c3ccc(C)c(CN4C[C@@H]5CCCN5c5ccccc5S4(=O)=O)c3)ccc21", "note": "(relative stereo) [Example 148, (*S)-3-[3-[(5,5-Dioxo-7a,8,9,10-tetrahydro-7H-pyrrolo[2,1-d][1,2,5]benzothiadiazepin-6-yl)methyl]-4-methyl-phenyl]-3-(1-ethyl-4-methyl-benzotriazol-5-yl)propanoic Acid]", "values": [
      {"measurement": "pEC50", "setting": "Homo sapiens, HEK293, 24 h", "value": 7.82}
    ]},
    {"compound": "Cc1cnc2c(c1)S(=O)(=O)N(Cc1cc([C@@H](c3ccn4c(C(F)(F)F)nnc4c3C)C(C)(C)C(=O)O)ccc1C)CC1(CCOCC1)O2", "note": "(single isomer, unassigned) [Example 407, (*S)-2,2-dimethyl-3-(4-methyl-3-((8′-methyl-1′,1′-dioxido-2,3,5,6-tetrahydrospiro[pyran-4,4′-pyrido[2,3-b][1,4,5]oxathiazepin]-2′(3′H)-yl)methyl)phenyl)-3-(8-methyl-3-(trifluoromethyl)-[1,2,4]triazolo[4,3-a]pyridin-7-yl)propanoic Acid]", "values": [
      {"measurement": "pEC50", "setting": "24 hours", "value": 8.83}
    ]},
    {"compound": "CCn1nnc2c(C)c(C(CC(=O)O)c3ccc(C)c(CN4C[C@H]5CCCN5c5ccccc5S4(=O)=O)c3)ccc21", "note": "(mixture of isomers) [Example 152, (R/S)-3-(3-(((R)-5,5-Dioxido-7a,8,9,10-tetrahydrobenzo[f]pyrrolo[2,1-d][1,2,5]thiadiazepin-6(7H)-yl)methyl)-4-methylphenyl)-3-(1-ethyl-4-methyl-1H-benzo[d][1,2,3]triazol-5-yl)propanoic Acid]", "values": [
      {"measurement": "pEC50", "setting": "Homo sapiens, HEK293, 24 h", "value": 8.19}
    ]},
    {"compound": "Cc1ccc([C@H](CC(=O)O)c2ccn3c(C(F)(F)F)nnc3c2C)cc1CN1CC2(CC2)Oc2nc(Cl)ccc2S1(=O)=O", "note": "(single isomer, unassigned) [Example 100, (*S)-3-(3-((7′-Chloro-1′,1′-dioxidospiro(cyclopropane-1.4′-pyrido[2,3-b][1,4,5]oxathiazepin]-2′(3′H)-yl)methyl)-4-methylphenyl)-3-(8-methyl-3-(trifluoromethyl)-[1,2,4]triazolo[4,3-a]pyridin-7-yl)propanoic Acid]", "values": [
      {"measurement": "pEC50", "setting": "Homo sapiens, HEK293, 24 h", "value": 7.88}
    ]},
    {"compound": "Cc1ccc(C(CC(=O)O)c2ccc3c(nnn3C3CC3)c2C)cc1CN1CC2(CC2)N(C)c2ncccc2S1(=O)=O", "note": "(racemic) [Example 224, (R/S)-3-(1-Cyclopropyl-4-methyl-1H-benzo[d][1,2,3]triazol-5-yl)-3-(4-methyl-3-((5′-methyl-1′,1′-dioxido-5′H-spiro[cyclopropane-1,4′-pyrido[2,3-f][1,2,5]thiadiazepin]-2′(3′H)-yl)methyl)phenyl)propanoic Acid]", "values": [
      {"measurement": "pEC50", "setting": "Homo sapiens, HEK293, 24 h", "value": 7.70}
    ]},
    {"compound": "Cc1ccc([C@H](CC(=O)O)c2ccn3c(C(F)(F)F)nnc3c2C)cc1CN1C[C@@H]2CCCN2c2ncc(C#N)cc2S1(=O)=O", "note": "(relative stereo) [Example 206, (*S)-3-(3-(((S)-3-Cyano-5,5-dioxido-7a,8,9,10-tetrahydropyrido[2,3-f]pyrrolo[2,1-d][1,2,5]thiadiazepin-6(7H)-yl)methyl)-4-methylphenyl)-3-(8-methyl-3-(trifluoromethyl)-[1,2,4]triazolo[4,3-a]pyridin-7-yl)propanoic Acid]", "values": [
      {"measurement": "pEC50", "setting": "Homo sapiens, HEK293, 24 h", "value": 7.85}
    ]},
    {"compound": "Cc1cnc2c(c1)S(=O)(=O)N(Cc1cc([C@H](CC(=O)O)c3ccn4c(C(F)(F)F)nnc4c3C)ccc1C)C[C@@H]1CCCCN21", "note": "(relative stereo) [Example 307, (*S)-3-(4-methyl-3-(((*S)-3-methyl-5,5-dioxido-7,7a,8,9,10,11-hexahydro-6H-dipyrido[2,1-d:2′,3′-f][1,2,5]thiadiazepin-6-yl)methyl)phenyl)-3-(8-methyl-3-(trifluoromethyl)-[1,2,4]triazolo[4,3-a]pyridin-7-yl)propanoic Acid]", "values": [
      {"measurement": "pEC50", "setting": "Homo sapiens, HEK293, 24 h", "value": 8.70}
    ]},
    {"compound": "Cc1cnc2c(c1)S(=O)(=O)N(Cc1cc([C@H](CC(=O)O)c3ccn4c(C(F)(F)F)nnc4c3C)ccc1C)CC1(CC1)O2", "note": "(single isomer, unassigned) [Example 27, (*S)-3-(4-Methyl-3-((8′-methyl-1′,1′-dioxidospiro[cyclopropane-1,4′-pyrido[2,3-b][1,4,5]oxathiazepin]-2′(3′H)-yl)methyl)phenyl)-3-(8-methyl-3-(trifluoromethyl)-[1,2,4]triazolo[4,3-a]pyridin-7-yl)propanoic Acid]", "values": [
      {"measurement": "pEC50", "setting": "Homo sapiens, HEK293, 24 h", "value": 7.54}
    ]},
    {"compound": "Cc1ccc([C@H](CC(=O)O)c2ccn3c(C(F)(F)F)nnc3c2C)cc1CN1C[C@@H]2CCCCN2c2ncc(C(F)(F)F)cc2S1(=O)=O", "note": "(relative stereo) [Example 198, (*S)-3-(3-(((*S)-5,5-Dioxido-3-(trifluoromethyl)-7,7a,8,9,10,11-hexahydro-6H-dipyrido[2,1-d:2′,3′-f][1,2,5]thiadiazepin-6-yl)methyl)-4-methylphenyl)-3-(8-methyl-3-(trifluoromethyl)-[1,2,4]triazolo[4,3-a]pyridin-7-yl)propanoic Acid]", "values": [
      {"measurement": "pEC50", "setting": "Homo sapiens, HEK293, 24 h", "value": 8.28}
    ]}
  ]
}
